The text below walks through data of ChEMBL document CHEMBL1153997, “Discovery of oxazolo[4,5-b]pyridines and related heterocyclic analogs as novel SIRT1 activators” (Bioorg Med Chem Lett, 2009).

The target in experiment [1] is T1, NAD-dependent protein deacetylase sirtuin-1 (Homo sapiens) (UniProt Q96EB6).
T1 sequence (whole entry): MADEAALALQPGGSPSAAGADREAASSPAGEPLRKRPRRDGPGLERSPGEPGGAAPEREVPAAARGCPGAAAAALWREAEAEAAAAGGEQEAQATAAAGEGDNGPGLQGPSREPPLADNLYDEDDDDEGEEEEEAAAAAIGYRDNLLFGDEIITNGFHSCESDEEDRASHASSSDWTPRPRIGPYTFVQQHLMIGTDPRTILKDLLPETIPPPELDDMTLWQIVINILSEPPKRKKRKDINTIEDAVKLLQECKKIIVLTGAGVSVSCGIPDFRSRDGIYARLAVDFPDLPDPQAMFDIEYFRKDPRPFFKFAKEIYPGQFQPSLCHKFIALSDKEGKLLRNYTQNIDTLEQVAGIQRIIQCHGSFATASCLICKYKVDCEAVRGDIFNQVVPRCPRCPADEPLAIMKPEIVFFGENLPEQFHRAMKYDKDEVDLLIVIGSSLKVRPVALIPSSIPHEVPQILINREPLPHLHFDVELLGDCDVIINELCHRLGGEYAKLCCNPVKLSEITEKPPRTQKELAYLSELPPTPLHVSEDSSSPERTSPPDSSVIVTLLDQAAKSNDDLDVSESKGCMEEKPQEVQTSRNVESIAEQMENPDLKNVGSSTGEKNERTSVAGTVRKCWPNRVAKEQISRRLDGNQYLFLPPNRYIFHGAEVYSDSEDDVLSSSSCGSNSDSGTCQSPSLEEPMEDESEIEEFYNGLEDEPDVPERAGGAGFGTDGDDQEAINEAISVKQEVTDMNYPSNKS
The experiment is described as follows: Activation of human SIRT1 expressed in Escherichia coli BL21 (DE3) assessed as concentration required to increase 50% enzyme activity by fluorescence polarization assay. A general note: In fluorescence polarisation assays a small probe gives low polarisation when free and higher when bound to something large.

Experiment [2] addresses T1, NAD-dependent protein deacetylase sirtuin-1 (Homo sapiens). The experiment is described as follows: Activation of human SIRT1 expressed in Escherichia coli BL21 (DE3) assessed as maximum activation of enzyme activity by fluorescence polarization assay.

Consider `COc1ccc(C(=O)Nc2ccccc2-c2nc3ncccc3o2)cc1OC`, for which, in experiment [1], the EC1.5 stood at 0.9 µM. In experiment [2], the max activation came to 170%.

In the case of `Oc1ccc(/C=C/c2cc(O)cc(O)c2)cc1`, the max activation in experiment [2] is 200%.

Turning to `COc1ccc(C(=O)Nc2ccccc2-c2nc3ccccc3[nH]2)cc1OC`, the EC1.5 in experiment [1] was found to be 0.4 µM. Also, in experiment [2], the max activation worked out at 595%.

`O=C(Nc1ccccc1-c1nc2ccccc2[nH]1)c1cnc2ccccc2n1`: the EC1.5 in experiment [1] was 0.3 µM. In addition, the max activation in experiment [2] stood at 253%.

Take `COc1ccc(C(=O)Nc2cccc(-c3nc4ncccc4[nH]3)c2)cc1OC`: the EC1.5 in experiment [1] was 1.4 µM. Also, the max activation in experiment [2] came to 324%.

With `COc1cc(C)ccc1C(=O)Nc1ccccc1-c1nc2ncccc2[nH]1`, the EC1.5 in experiment [1] came out at 4.1 µM. The max activation in experiment [2] came to 250%.

For the molecule `O=C(Nc1ccccc1-c1nc2ncccc2[nH]1)c1ccc(N2CCOCC2)cc1`, the EC1.5 in experiment [1] is 0.9 µM. Moreover, the max activation in experiment [2] was 273%.

In the case of `COc1ccc(C(=O)Nc2cccc(-c3nc4ncccc4[nH]3)c2)c(OC)c1`, the EC1.5 in experiment [1] was 0.5 µM. In addition, the max activation in experiment [2] turned out to be 232%.

`CN(C)c1cccc(C(=O)Nc2ccc(-c3nc4ncccc4o3)cc2)c1`: in experiment [1], the EC1.5 is more than 100 µM.

Regarding `CN(C)c1cccc(C(=O)Nc2ccccc2-c2nc3ncccc3o2)c1`, the EC1.5 in experiment [1] was 4.4 µM. The max activation in experiment [2] was 209%.

Consider `COc1ccc(C(=O)Nc2cc(C(=O)NCCN(C)C)cc(-c3nc4ncccc4o3)c2)cc1OC`, for which the EC1.5 in experiment [1] stood at 0.7 µM. The max activation in experiment [2] came out at 240%.

As to `CN(C)c1ccc(C(=O)Nc2ccccc2-c2nc3ncccc3[nH]2)cc1`, the EC1.5 in experiment [1] worked out at 0.7 µM. The max activation in experiment [2] was found to be 230%.

As for `COc1ccc(C(=O)Nc2ccc(-c3nc4ncccc4[nH]3)cc2)cc1OC`, the EC1.5 in experiment [1] amounted to 1.6 µM. The max activation in experiment [2] is 180%.

As for `COc1ccc(C(=O)Nc2cc(CN3CCNCC3)cc(-c3nc4ncccc4o3)c2)c(OC)c1`, in experiment [1], the EC1.5 was determined as 0.5 µM. Also, the max activation in experiment [2] came out at 220%.

Consider `COc1ccc(C(=O)Nc2cc(CN(C)C)cc(-c3nc4ncccc4o3)c2)cc1OC`, for which, in experiment [1], the EC1.5 was 1.1 µM. Moreover, the max activation in experiment [2] was 200%.

As to `COc1cc(OC)cc(C(=O)Nc2ccccc2-c2nc3ccccc3[nH]2)c1`, the EC1.5 in experiment [1] was found to be 1.7 µM. In experiment [2], the max activation came to 180%.

Turning to `CN(C)c1cccc(C(=O)Nc2cccc(-c3nc4ncccc4o3)c2)c1`, the EC1.5 in experiment [1] turned out to be 25 µM. Further, in experiment [2], the max activation worked out at 207%.

`COc1ccc(C(=O)Nc2cc(CN3CCNCC3)cc(-c3nc4ncccc4o3)c2)cc1OC`: in experiment [1], the EC1.5 amounted to 1.1 µM. For the same molecule, the max activation in experiment [2] stood at 240%.

As to `COc1cc(C)ccc1C(=O)Nc1ccc(-c2nc3ncccc3[nH]2)cc1`, the EC1.5 in experiment [1] turned out to be 2.3 µM. Further, the max activation in experiment [2] turned out to be 150%.

Turning to `COc1ccc(C(=O)Nc2cccc(-c3nc4ncccc4o3)c2)cc1OC`, in experiment [1], the EC1.5 is 6 µM. In addition, the max activation in experiment [2] amounted to 240%.

On to `COc1ccc(C(=O)Nc2ccccc2-c2nc3ncccc3[nH]2)cc1OC`, for which the EC1.5 in experiment [1] was 0.5 µM. Further, the max activation in experiment [2] came to 270%.

As to `O=C(Nc1ccc(CN2CCNCC2)cc1-c1nc2ccccc2[nH]1)c1cnc2ccccc2n1`, in experiment [1], the EC1.5 stood at 0.4 µM. Further, in experiment [2], the max activation turned out to be 820%.

Turning to `COc1ccc(C(=O)Nc2ccccc2-c2nc3ccccc3[nH]2)cc1CN1CCOCC1`, the EC1.5 in experiment [1] came out at 0.5 µM. The max activation in experiment [2] turned out to be 314%.

`COc1ccc(C(=O)Nc2ccc(-c3nc4ncccc4o3)cc2)cc1OC`: the EC1.5 in experiment [1] was more than 100 µM.

For the molecule `CN(C)CCNC(=O)c1cc(NC(=O)c2cccc(N(C)C)c2)cc(-c2nc3ncccc3o2)c1`, the EC1.5 in experiment [1] was determined as 1.8 µM. The max activation in experiment [2] worked out at 330%.
